Experiment: Thymol Concentrations in Extractions (thymol released into liquid, HPLC)
Assay type: physicochemical
Settings: neat thymol <250 microns, 2 g, 30 mins
Experimental: An aliquot of a sample was centrifuged at approximately 5000 rpm until visible settling occurred (approximately 30 minutes). […]. The contents were dissolved and diluted with a 0.1% AA:IPA (50:50) solution to volume. The solution was then filtered with Pall Acrodisc 0.45 micron nylon membrane. The thymol concentration was determined through “High Performance Liquid Chromatography (HPLC) analysis” according to the following conditions:
HPLC Equipment & Conditions
HPLC: Agilent 1100 HPLC system.
Column: Phenomenex Luna NH2 (5 μm, 250 mm×4.6 mm)-ambient
Detector: UV/Vis at 280 nm
Mobile Phases: (75:25) (IPA: 0.1% acetic acid)
Flow Rate: approximately 0.6 mL/min.
Injection Volume: approximately 15 μL

Cc1ccc(C(C)C)c(O)c1 [thymol, Thymol]
% Thymol (wt/wt) in extract solution (0 g citric acid, 100 mL deionized water): 0.084 % (wt/wt)
% Thymol (wt/wt) in extract solution (1.14 g citric acid, 97 mL deionized water): 0.081 % (wt/wt)

From patent US9271487B2, “Protein stabilized antimicrobial composition formed by melt processing” (Kimberly-Clark Worldwide, Inc., priority 2010, dated 2016)
